# Measurements published in ChEMBL document CHEMBL3885881, “DrugMatrix”.
# Species on record: Rattus norvegicus
# Assay: DrugMatrix - Regimen: Daily Repeat
# Type: toxicity, organism-based, Sprague-Dawley
# Set-up: regimen Daily Repeat, gender Male, age 6-8 weeks
# Conditions: in vivo, po, route oral GAVAGE, vehicle .5 % CMC; for ABSOLUTE BASOPHIL / ABSOLUTE EOSINOPHIL / ABSOLUTE LYMPHOCYTE / ABSOLUTE MONOCYTE / ABSOLUTE SEGMENTED NEUTROPHIL / BASOPHIL / EOSINOPHIL / ERYTHROCYTE COUNT / HEMATOCRIT / HEMOGLOBIN / LEUKOCYTE COUNT / LYMPHOCYTE / MEAN CORPUSCULAR HEMOGLOBIN / MEAN CORPUSCULAR HEMOGLOBIN CONCENTRATION / MEAN CORPUSCULAR VOLUME / MONOCYTE / NEUTROPHIL / NUCLEATED RED BLOOD CELLS / PLATELET COUNT: tissue Blood; for ALANINE AMINOTRANSFERASE / ALBUMIN / ALKALINE PHOSPHATASE / ASPARTATE AMINOTRANSFERASE / BLOOD UREA NITROGEN / CARBON DIOXIDE / CHLORIDE / CHOLESTEROL / CREATINE PHOSPHOKINASE / CREATININE / GLUCOSE / LACTATE DEHYDROGENASE / LIPASE / PHOSPHORUS / POTASSIUM / SODIUM / TOTAL BILIRUBIN / TOTAL PROTEIN / URIC ACID: tissue Plasma
# [1] = 20 mg/kg, 72 h, dose level Low, time 3 day
# [2] = 20 mg/kg, 120 h, dose level Low, time 5 day
# [3] = 201 mg/kg, 72 h, dose level High, time 3 day
# [4] = 201 mg/kg, 120 h, dose level High, time 5 day
smiles,measurement,setting,value
CCCCCCNC(=O)n1cc(F)c(=O)[nH]c1=O [CARMOFUR],ABSOLUTE BASOPHIL,[1],0 CELLS/uL
same,ABSOLUTE EOSINOPHIL,[1],56 CELLS/uL
same,ABSOLUTE LYMPHOCYTE,[1],15579 CELLS/uL
same,ABSOLUTE MONOCYTE,[1],284.33 CELLS/uL
same,ABSOLUTE SEGMENTED NEUTROPHIL,[1],1314 CELLS/uL
same,BASOPHIL,[1],0%
same,EOSINOPHIL,[1],0.33%
same,ERYTHROCYTE COUNT,[1],5.63 x10E6/uL
same,HEMATOCRIT,[1],35.8%
same,HEMOGLOBIN,[1],14.23 G/DL
same,LEUKOCYTE COUNT,[1],17.23 x10E3/uL
same,LYMPHOCYTE,[1],90.33%
same,MEAN CORPUSCULAR HEMOGLOBIN,[1],25.27 pg
same,MEAN CORPUSCULAR HEMOGLOBIN CONCENTRATION,[1],39.8 G/DL
same,MEAN CORPUSCULAR VOLUME,[1],63.6 fL
same,MONOCYTE,[1],1.67%
same,NEUTROPHIL,[1],7.67%
same,NUCLEATED RED BLOOD CELLS,[1],0 /100WBC
same,PLATELET COUNT,[1],1328 x10E3/uL
same,ALANINE AMINOTRANSFERASE,[1],51 u/L
same,ALBUMIN,[1],4.43 G/DL
same,ALKALINE PHOSPHATASE,[1],409 u/L
same,ASPARTATE AMINOTRANSFERASE,[1],85.67 u/L
same,BLOOD UREA NITROGEN,[1],13 mg/dL
same,CARBON DIOXIDE,[1],22.67 mmol/L
same,CHLORIDE,[1],103.67 MEQ/L
same,CHOLESTEROL,[1],70.67 mg/dL
same,CREATINE PHOSPHOKINASE,[1],301.67 u/L
same,CREATININE,[1],0.18 mg/dL
same,GLUCOSE,[1],161 mg/dL
same,LACTATE DEHYDROGENASE,[1],305.33 u/L
same,LIPASE,[1],9 u/L
same,PHOSPHORUS,[1],12.3 mg/dL
same,POTASSIUM,[1],6.94 MEQ/L
same,SODIUM,[1],146.4 MEQ/L
same,TOTAL BILIRUBIN,[1],0.17 mg/dL
same,TOTAL PROTEIN,[1],6.13 G/DL
same,URIC ACID,[1],1.63 mg/dL
same,ABSOLUTE BASOPHIL,[2],0 CELLS/uL
same,ABSOLUTE EOSINOPHIL,[2],222.67 CELLS/uL
same,ABSOLUTE LYMPHOCYTE,[2],15078.33 CELLS/uL
same,ABSOLUTE MONOCYTE,[2],213.33 CELLS/uL
same,ABSOLUTE SEGMENTED NEUTROPHIL,[2],719 CELLS/uL
same,BASOPHIL,[2],0%
same,EOSINOPHIL,[2],1.33%
same,ERYTHROCYTE COUNT,[2],5.39 x10E6/uL
same,HEMATOCRIT,[2],34.47%
same,HEMOGLOBIN,[2],13.83 G/DL
same,LEUKOCYTE COUNT,[2],16.23 x10E3/uL
same,LYMPHOCYTE,[2],93%
same,MEAN CORPUSCULAR HEMOGLOBIN,[2],25.67 pg
same,MEAN CORPUSCULAR HEMOGLOBIN CONCENTRATION,[2],40.1 G/DL
same,MEAN CORPUSCULAR VOLUME,[2],64 fL
same,MONOCYTE,[2],1.33%
same,NEUTROPHIL,[2],4.33%
same,NUCLEATED RED BLOOD CELLS,[2],0 /100WBC
same,PLATELET COUNT,[2],1330.33 x10E3/uL
same,ALANINE AMINOTRANSFERASE,[2],47.67 u/L
same,ALBUMIN,[2],4.3 G/DL
same,ALKALINE PHOSPHATASE,[2],311 u/L
same,ASPARTATE AMINOTRANSFERASE,[2],74.33 u/L
same,BLOOD UREA NITROGEN,[2],14 mg/dL
same,CARBON DIOXIDE,[2],23 mmol/L
same,CHLORIDE,[2],103.33 MEQ/L
same,CHOLESTEROL,[2],73.33 mg/dL
same,CREATINE PHOSPHOKINASE,[2],245.33 u/L
same,CREATININE,[2],0.12 mg/dL
same,GLUCOSE,[2],149 mg/dL
same,LACTATE DEHYDROGENASE,[2],124.33 u/L
same,LIPASE,[2],8 u/L
same,PHOSPHORUS,[2],12.67 mg/dL
same,POTASSIUM,[2],6.45 MEQ/L
same,SODIUM,[2],145.27 MEQ/L
same,TOTAL BILIRUBIN,[2],0.23 mg/dL
same,TOTAL PROTEIN,[2],6.07 G/DL
same,URIC ACID,[2],1.57 mg/dL
same,ABSOLUTE BASOPHIL,[3],0 CELLS/uL
same,ABSOLUTE EOSINOPHIL,[3],0 CELLS/uL
same,ABSOLUTE LYMPHOCYTE,[3],13152.33 CELLS/uL
same,ABSOLUTE MONOCYTE,[3],146.67 CELLS/uL
same,ABSOLUTE SEGMENTED NEUTROPHIL,[3],901 CELLS/uL
same,BASOPHIL,[3],0%
same,EOSINOPHIL,[3],0%
same,ERYTHROCYTE COUNT,[3],5.67 x10E6/uL
same,HEMATOCRIT,[3],35.7%
same,HEMOGLOBIN,[3],14.47 G/DL
same,LEUKOCYTE COUNT,[3],14.2 x10E3/uL
same,LYMPHOCYTE,[3],92.67%
same,MEAN CORPUSCULAR HEMOGLOBIN,[3],25.5 pg
same,MEAN CORPUSCULAR HEMOGLOBIN CONCENTRATION,[3],40.53 G/DL
same,MEAN CORPUSCULAR VOLUME,[3],62.97 fL
same,MONOCYTE,[3],1%
same,NEUTROPHIL,[3],6.33%
same,NUCLEATED RED BLOOD CELLS,[3],0 /100WBC
same,PLATELET COUNT,[3],1275.33 x10E3/uL
same,ALANINE AMINOTRANSFERASE,[3],52.67 u/L
same,ALBUMIN,[3],4.37 G/DL
same,ALKALINE PHOSPHATASE,[3],367 u/L
same,ASPARTATE AMINOTRANSFERASE,[3],69 u/L
same,BLOOD UREA NITROGEN,[3],23.33 mg/dL
same,CARBON DIOXIDE,[3],21 mmol/L
same,CHLORIDE,[3],102.33 MEQ/L
same,CHOLESTEROL,[3],81 mg/dL
same,CREATINE PHOSPHOKINASE,[3],192.67 u/L
same,CREATININE,[3],0.27 mg/dL
same,GLUCOSE,[3],160 mg/dL
same,LACTATE DEHYDROGENASE,[3],198.33 u/L
same,LIPASE,[3],9.33 u/L
same,PHOSPHORUS,[3],12 mg/dL
same,POTASSIUM,[3],6.3 MEQ/L
same,SODIUM,[3],145.27 MEQ/L
same,TOTAL BILIRUBIN,[3],0.17 mg/dL
same,TOTAL PROTEIN,[3],6.33 G/DL
same,URIC ACID,[3],1.77 mg/dL
same,ABSOLUTE BASOPHIL,[4],0 CELLS/uL
same,ABSOLUTE EOSINOPHIL,[4],0 CELLS/uL
same,ABSOLUTE LYMPHOCYTE,[4],4570 CELLS/uL
same,ABSOLUTE MONOCYTE,[4],201.5 CELLS/uL
same,ABSOLUTE SEGMENTED NEUTROPHIL,[4],2778.5 CELLS/uL
same,BASOPHIL,[4],0%
same,EOSINOPHIL,[4],0%
same,ERYTHROCYTE COUNT,[4],8.62 x10E6/uL
same,HEMATOCRIT,[4],52.2%
same,HEMOGLOBIN,[4],20.65 G/DL
same,LEUKOCYTE COUNT,[4],7.55 x10E3/uL
same,LYMPHOCYTE,[4],62.5%
same,MEAN CORPUSCULAR HEMOGLOBIN,[4],24 pg
same,MEAN CORPUSCULAR HEMOGLOBIN CONCENTRATION,[4],39.6 G/DL
same,MEAN CORPUSCULAR VOLUME,[4],60.55 fL
same,MONOCYTE,[4],2.5%
same,NEUTROPHIL,[4],35%
same,NUCLEATED RED BLOOD CELLS,[4],0 /100WBC
same,PLATELET COUNT,[4],1522.5 x10E3/uL
same,ALANINE AMINOTRANSFERASE,[4],43.5 u/L
same,ALBUMIN,[4],5.05 G/DL
same,ALKALINE PHOSPHATASE,[4],216 u/L
same,ASPARTATE AMINOTRANSFERASE,[4],414 u/L
same,BLOOD UREA NITROGEN,[4],219.5 mg/dL
same,CARBON DIOXIDE,[4],19 mmol/L
same,CHLORIDE,[4],115 MEQ/L
same,CHOLESTEROL,[4],78.5 mg/dL
same,CREATINE PHOSPHOKINASE,[4],2230 u/L
same,CREATININE,[4],0.29 mg/dL
same,GLUCOSE,[4],164 mg/dL
same,LACTATE DEHYDROGENASE,[4],1956 u/L
same,LIPASE,[4],24.5 u/L
same,PHOSPHORUS,[4],20.35 mg/dL
same,POTASSIUM,[4],5.82 MEQ/L
same,SODIUM,[4],154.1 MEQ/L
same,TOTAL BILIRUBIN,[4],0.6 mg/dL
same,TOTAL PROTEIN,[4],6.6 G/DL
same,URIC ACID,[4],4.25 mg/dL
